tested on: Candida; assay: Antimicrobial in-vivo activity (oral) in mouse candidosis; parameters: species or system Mäuse vom Typ SPF-DF1; details: mice infected i.v. with Candida cells; 50 to 100 mg/kg oral, one hour before and seven hours after infection; compared with prior-art compounds; untreated survival about 5 % on day 6
Procedure: Mäuse vom Typ SPF-DF1 wurden intravenös mit 1 bis 2 x 10^6 logarytmisch wachsenden Candida-Zellen, die in physiologischer Kochsalzlösung suspendiert waren, infiziert. Eine Stunde vor und sieben Stunden nach der Infektion werden die Tiere mit jeweils 50 bis 100 mg/kg Körpergewicht der Präparate oral behandelt.
Unbehandelte Tiere starben 3 bis 6 Tage post infektionem. Die Überlebensrate am 6. Tag post infektionem betrug bei unbehandelten Kontrolltieren etwa 5 %.

Row | SMILES | in-vivo-Wirksamkeit
1 | CC(C)(C)C(O)C(C(O)C(Cl)(Cl)Cl)n1cncn1 (centres unmarked) [Beispiel 1, 1,1,1-Trichlor-3-(1,2,4-triazol-1-yl)-5,5-dimethyl-hexan-2,4-diol] | denjenigen der Verbindungen des Standes der Technik überlegen
2 | CC(C)(C)C(O)C(C(O)C(C)(C)Cl)n1cncn1 (centres unmarked) [Beispiel 4] | denjenigen der Verbindungen des Standes der Technik überlegen
3 | CC(C)(C)C(O)C(C(O)C=C(Cl)Cl)n1cncn1 (centres unmarked) [Beispiel 6] | denjenigen der Verbindungen des Standes der Technik überlegen
4 | CC(Cl)C(Cl)(Cl)C(O)C(C(O)C(C)(C)CF)n1cncn1 (centres unmarked) [Beispiel 11] | denjenigen der Verbindungen des Standes der Technik überlegen
5 | OC(c1ccc(Cl)cc1)C(C(O)C(Cl)(Cl)Cl)n1cncn1 (centres unmarked) [Beispiel 12] | denjenigen der Verbindungen des Standes der Technik überlegen
6 | OC(c1ccc(Cl)cc1Cl)C(C(O)C(Cl)(Cl)Cl)n1cncn1 (centres unmarked) [Beispiel 14] | denjenigen der Verbindungen des Standes der Technik überlegen
7 | OC(c1ccc(F)cc1)C(C(O)C(Cl)(Cl)Cl)n1cncn1 (centres unmarked) [Beispiel 15] | denjenigen der Verbindungen des Standes der Technik überlegen
8 | CC(Cl)C(Cl)(Cl)C(O)C(C(O)C(C)(C)C)n1cncn1 (centres unmarked) [Beispiel 21] | denjenigen der Verbindungen des Standes der Technik überlegen

— patent publication EP0033088A2, “Antimycotic agents” (BAYER AG, priority 1980, dated 1981)
